Holding throughout (type): biochemical
Experiment [1] addresses T1, 5-LOX (Soybean lipoxygenase) (Glycine max, UniProt P08170).
T1 construct: purchased Cayman Chemical Co. 760700
T1 sequence (P08170 1-839): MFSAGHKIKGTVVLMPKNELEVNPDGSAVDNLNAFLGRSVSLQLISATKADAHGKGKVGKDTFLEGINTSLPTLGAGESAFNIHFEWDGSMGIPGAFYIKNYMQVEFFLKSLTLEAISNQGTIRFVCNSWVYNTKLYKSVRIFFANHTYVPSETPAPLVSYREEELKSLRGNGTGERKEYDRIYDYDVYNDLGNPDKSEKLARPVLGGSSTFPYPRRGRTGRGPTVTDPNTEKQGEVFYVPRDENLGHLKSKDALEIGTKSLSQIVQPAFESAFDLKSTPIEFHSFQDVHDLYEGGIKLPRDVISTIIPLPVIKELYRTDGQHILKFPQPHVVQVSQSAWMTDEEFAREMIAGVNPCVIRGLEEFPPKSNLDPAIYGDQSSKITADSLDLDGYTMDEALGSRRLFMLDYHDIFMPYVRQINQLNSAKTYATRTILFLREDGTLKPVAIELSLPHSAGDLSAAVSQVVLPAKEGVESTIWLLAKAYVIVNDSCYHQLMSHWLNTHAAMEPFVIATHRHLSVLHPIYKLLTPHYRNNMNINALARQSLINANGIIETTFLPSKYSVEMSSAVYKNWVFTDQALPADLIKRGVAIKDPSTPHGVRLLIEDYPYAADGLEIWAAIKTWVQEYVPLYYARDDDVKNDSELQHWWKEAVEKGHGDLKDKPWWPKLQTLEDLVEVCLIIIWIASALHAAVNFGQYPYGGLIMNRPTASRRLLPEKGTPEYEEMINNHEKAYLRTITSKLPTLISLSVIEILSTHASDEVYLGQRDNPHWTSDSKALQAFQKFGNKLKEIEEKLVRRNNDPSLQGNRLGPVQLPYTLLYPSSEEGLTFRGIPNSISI
In words: Lipoxygenase inhibitory activity assay. As to the method: 10 µL of the compound of each concentration was mixed with 90 µL 5-LOX (Soybean lipoxygenase in assay buffer) in the specified wells of the 96-well plate. Two wells containing assay buffer and AA acted as blanks whereas four wells, each carrying enzyme and AA, were positive controls. 10 µL AA was added to each test well and the plate was shaken for 5 min. Chromogen (100 µL) was added to each well and the plate was again shaken for 5 min. The absorbance of each well at 490 nm was recorded on microplate scanning spectrophotometer. As per the protocol given with the assay kit, the 5-LOX inhibitory activity for each compound at each concentration was determined using the mean of the two values (duplicate experiments) with deviation <5%.

For experiment [2], the target named is T2, COX-1 (Ovis aries, UniProt P05979).
T2 construct: purchased Cayman Chemical Co. 560131
T2 sequence (P05979 25-600): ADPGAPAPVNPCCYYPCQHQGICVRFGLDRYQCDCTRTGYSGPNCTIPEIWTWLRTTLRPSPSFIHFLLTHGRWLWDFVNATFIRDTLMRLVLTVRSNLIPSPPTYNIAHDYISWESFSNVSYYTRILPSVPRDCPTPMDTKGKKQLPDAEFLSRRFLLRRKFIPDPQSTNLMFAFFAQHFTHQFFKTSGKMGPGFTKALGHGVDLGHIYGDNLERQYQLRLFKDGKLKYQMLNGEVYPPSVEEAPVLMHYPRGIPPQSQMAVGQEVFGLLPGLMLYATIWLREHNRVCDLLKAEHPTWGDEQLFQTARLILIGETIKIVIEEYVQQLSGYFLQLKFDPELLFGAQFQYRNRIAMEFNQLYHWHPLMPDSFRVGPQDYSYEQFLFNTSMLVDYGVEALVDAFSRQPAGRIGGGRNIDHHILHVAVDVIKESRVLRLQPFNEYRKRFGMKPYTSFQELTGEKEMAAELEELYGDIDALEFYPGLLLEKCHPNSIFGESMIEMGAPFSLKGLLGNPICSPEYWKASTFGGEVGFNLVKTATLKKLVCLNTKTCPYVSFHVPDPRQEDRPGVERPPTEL
The experiment is described as follows: COX-1 enzyme immunoassay (Cayman inhibitor screening kit). How it is done:
(§1) Principally, the catalytic activity of COX-1/2 is slowed down in the presence of its inhibitor and quantitatively, it is inversely proportional to the amount of prostaglandin produced in the presence of inhibitor.
(§2) The enzyme inhibition screening assay kits for COX-1/2 and 5-LOX with item no. […] The 100% initial activity tubes for the two enzymes contained 10 µL heme and 10 µL of the enzyme in 160 µL reaction buffer. Then 10 µL inhibitor (compound of above mentioned concentrations) was added to the inhibitor tubes for the two enzymes and 10 µL of vehicle (DMSO) was added to 100% initial activity and background tubes. All the tubes were incubated for 10 min at 37 °C and the reaction was started by adding 10 µL arachidonic acid to all the reaction tubes. After incubation of the reaction vials for 2 min at 37 °C, the enzyme catalysis was stopped by adding 30 µL saturated stannous chloride solution to each test tube and solutions were kept at 0–4 °C. For EIA (enzyme immunoassay) procedure: the EIA buffers and assay specific reagents were prepared as written in the manual. In the COX dilutions, two test tubes labelled as BC1 and BC2 were taken to prepare background samples. Each tube contained 990 µL of EIA buffer and 10 µL of background COX-1 for BC1 and 10 µL of background COX-2 for BC2. The samples for 100% initial activity were diluted in three vials labelled IA1, IA2 and IA3 for each enzyme. IA1 contained 990 µL EIA buffer and 10 µL enzyme, IA2 has 950 µL buffer and 50 µL solution of IA1 (1:2000 dilution of original sample) and IA3 carried 500 µL of buffer and 500 µL of IA2 solution (1:4000 dilution of original sample). Each solution was thoroughly mixed. Solutions of IA2 and IA3 were used for the assaying. […] C2 contained 950 µL buffer and 50 µL solution of C1 (1:2000 dilution of original sample) and vial C3 was charged with 500 µL buffer and 500 µL solution from C2 (1: 4000 dilution of original sample). Only C2 and C3 were run in the assay. After all the reaction dilutions, these were then subjected to 96 wells plate. The wells were divided as: 2 blank wells, 2 NSB wells (non-specific binding), 3 B0 wells (maximum binding), one TA well (total activity), 16 wells for standards (S1–S8 in repeat), 2 BC1 and 2 BC2 wells. Compounds (inhibitors) were put in all the other wells. The sequence for the addition of reagents onto the plate was as per the protocol of the assay kit. […] For developing the plate; it was emptied and washed with wash buffer 5 times followed by the addition of 200 µL Ellman’s reagent to each well. 5 µL tracer was added to the TA well. Then the plate was covered and left for 60 mins for development in dark. After the respective time period the cover was removed and the plate was read at 420 nm. %B/Bo (i.e. % sample or maximum bound) value for standards S1-S8 and each sample was determined from the absorbance values obtained according to the calculation given in the protocol. The amount of prostaglandins formed during the enzymatic reaction was calculated from the values of %B/Bo for all the compounds at all concentrations with the help of the standard curve (plotted between %B/Bo of standards and raw data given in the protocol). Then the prostaglandin formed at each concentration of all the compounds and percentage inhibition values were calculated. The graph between percent inhibition of the enzyme and corresponding concentration of the compound provided IC50 values for the compounds.

The target in experiment [3] is T3, COX-2 (Homo sapiens, UniProt P35354).
T3 sequence (P35354 18-604): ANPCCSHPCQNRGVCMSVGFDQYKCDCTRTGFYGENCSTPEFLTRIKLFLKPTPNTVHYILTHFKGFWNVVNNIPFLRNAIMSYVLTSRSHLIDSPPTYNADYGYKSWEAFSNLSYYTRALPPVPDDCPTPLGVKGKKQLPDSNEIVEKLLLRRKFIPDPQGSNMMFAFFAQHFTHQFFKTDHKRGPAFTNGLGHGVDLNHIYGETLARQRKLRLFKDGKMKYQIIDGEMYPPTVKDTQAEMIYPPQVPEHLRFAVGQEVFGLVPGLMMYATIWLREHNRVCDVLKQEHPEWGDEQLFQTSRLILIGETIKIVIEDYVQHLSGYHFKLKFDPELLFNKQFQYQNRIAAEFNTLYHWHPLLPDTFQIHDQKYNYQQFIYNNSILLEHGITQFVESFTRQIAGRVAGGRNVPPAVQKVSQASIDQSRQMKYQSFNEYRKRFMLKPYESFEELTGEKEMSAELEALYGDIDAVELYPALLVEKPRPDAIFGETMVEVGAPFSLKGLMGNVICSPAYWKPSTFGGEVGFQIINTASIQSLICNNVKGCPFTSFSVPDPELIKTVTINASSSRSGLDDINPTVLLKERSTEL
In words: COX-2 enzyme immunoassay (Cayman inhibitor screening kit). Particulars: for Selectivity index: SI = IC50 (COX-1)/ IC50 (COX-2); for IC50: enzyme immunoassay, average of three experiments. The arrangement: purchased Cayman Chemical Co. 560131. As to the method:
as §1, §2

Where [4] appears, read: soybean lipoxygenase, duplicate, read-out: IC50 5-LOX.
[5] abbreviates: enzyme immunoassay, average of three experiments, read-out: IC50 COX-1.

Here are results for twelve compounds from article PMC6030096, “Synergy of Physico-chemical and Biological Experiments for Developing a Cyclooxygenase-2 Inhibitor” (Scientific Reports, 2018).

Where two headings read alike, the source gives them in different places.

As to `CN1C(=O)C(=Cc2cn(C[C@@H](O)Cn3c4ccccc4c(=O)c4ccccc43)c3ccccc23)C(=O)N(C)C1=O` [(R)-3b], the IC50 in experiment [1] was 2000 ± 180 nM; in experiment [2] it was 1000 ± 200 nM; in experiment [3] it was 100 ± 70 nM. In addition, in experiment [3], the Selectivity index was 10.
In the case of `O=C1NC(=O)C(=Cc2cn(C[C@@H](O)Cn3c4ccccc4c(=O)c4ccccc43)c3ccccc23)C(=O)N1` [(R)-3a], in experiment [1], 1000 ± 100 nM corresponded to half-maximal inhibition (IC50).
As to `O=C1Nc2ccccc2C1=Cc1cn(CCCCn2c3ccccc3c(=O)c3ccccc32)c2ccccc12` [Compound 4d], the figures for the IC50 in experiment [1] (setting [4]), in experiment [2] (setting [5]) and in experiment [3] were 200 ± 90 nM, 4000 ± 180 nM and 3000 ± 220 nM, respectively. Moreover, the Selectivity index in experiment [3] turned out to be 1.33.
`CN1C(=O)C(=Cc2cn(C[C@H](O)Cn3c4ccccc4c(=O)c4ccccc43)c3ccccc23)C(=O)N(C)C1=O` [(S)-3b]: the IC50 in experiment [1] came out at 90 ± 12 nM; in experiment [2] it was 700 ± 50 nM; in experiment [3], 300 ± 180 nM.
Take `O=C1C(=Cc2cn(C[C@H](O)Cn3c4ccccc4c(=O)c4ccccc43)c3ccccc23)c2ccccc2N1c1c(Cl)cccc1Cl` [(S)-3d]: the concentration for half-maximal inhibition (IC50) in experiment [1] (setting [4]) turned out to be 600 ± 39 nM; in experiment [2] (setting [5]) it was 60000 ± 4500 nM; in experiment [3], 6000 ± 500 nM. Further, the Selectivity index in experiment [3] came to 10.
Regarding `CC1=NN(c2cccc(Cl)c2)C(=O)C1=Cc1cn(CCCn2c3ccccc3c(=O)c3ccccc32)c2ccccc12` [Compound 4e], the concentration for half-maximal inhibition (IC50) in experiment [1] (setting [4]) is 400 ± 15 nM; in experiment [2] (setting [5]), greater than 10000 nM; in experiment [3], 9000 ± 550 nM. This compound gave a Selectivity index in experiment [3] greater than 1.11.
Turning to `O=C1C(=Cc2cn(C[C@@H](O)Cn3c4ccccc4c(=O)c4ccccc43)c3ccccc23)c2ccccc2N1c1c(Cl)cccc1Cl` [(R)-3d], the IC50 in experiment [1] (setting [4]) was 100 ± 60 nM; in experiment [2] (setting [5]), greater than 10000 nM.
Take `O=C1NC(=O)C(=Cc2cn(CCCCn3c4ccccc4c(=O)c4ccccc43)c3ccccc23)C(=O)N1` [Compound 4b]: the IC50 in experiment [1] was 70 ± 22 nM; in experiment [2] it was greater than 10000 nM; in experiment [3], 8000 ± 420 nM.
Regarding `CC1=NN(c2cccc(Cl)c2)C(=O)C1=Cc1cn(CCCCn2c3ccccc3c(=O)c3ccccc32)c2ccccc12` [Compound 4f], the IC50 in experiment [1] (setting [4]) is 100 ± 70 nM; in experiment [3], 40000 ± 3800 nM.
For the compound `O=C1Nc2ccccc2C1=Cc1cn(C[C@@H](O)Cn2c3ccccc3c(=O)c3ccccc32)c2ccccc12` [(R)-3c], the IC50 in experiment [1] (setting [4]) stood at 600 ± 42 nM; in experiment [2] (setting [5]), 8000 ± 380 nM; in experiment [3], 80000 ± 7000 nM. The same compound returned a Selectivity index in experiment [3] of 0.1.
With `CC1=NN(c2cccc(Cl)c2)C(=O)C1=Cc1cn(C[C@H](O)Cn2c3ccccc3c(=O)c3ccccc32)c2ccccc12` [(S)-3e], in experiment [1] (setting [4]), the IC50 was 700 ± 38 nM.
For `CC1=NN(c2cccc(Cl)c2)C(=O)C1=Cc1cn(C[C@@H](O)Cn2c3ccccc3c(=O)c3ccccc32)c2ccccc12` [(R)-3e], the IC50 in experiment [1] (setting [4]) worked out at 300 ± 130 nM.
